For this assay, the target named is ASK1 (Apoptosis Signal-Regulating Kinase 1) (Homo sapiens (Human), UniProt Q99683). Nature of the assay: ASK1 (Apoptosis Signal-Regulating Kinase 1) TR-FRET Kinase Assay (Biochemical IC50). Particulars: TR-FRET, biotin-MBP substrate, 20 min pre-incubation, ATP added as 300 μM solution.
Chain of ASK1 (Apoptosis Signal-Regulating Kinase 1) (Q99683 649-946): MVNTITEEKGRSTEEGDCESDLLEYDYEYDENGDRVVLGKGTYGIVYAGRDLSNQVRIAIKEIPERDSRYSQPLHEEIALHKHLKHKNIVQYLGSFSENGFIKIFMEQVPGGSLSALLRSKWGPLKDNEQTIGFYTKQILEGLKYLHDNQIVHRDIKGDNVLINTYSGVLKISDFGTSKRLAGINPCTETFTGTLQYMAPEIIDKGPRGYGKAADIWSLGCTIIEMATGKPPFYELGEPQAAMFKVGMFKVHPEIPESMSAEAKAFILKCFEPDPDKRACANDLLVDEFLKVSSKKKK
For `O=C(Nc1cccc(-c2nncn2C2CC2)c1)c1cc(-n2cnc3cccnc32)ccn1` [Example 82, N-(3-(4-cyclopropyl-4H-1,2,4-triazol-3-yl)phenyl)-4-(3H-imidazo[4,5-b]pyridin-3-yl)picolinamide], 20 nM corresponded to half-maximal inhibition (IC50).

Turning to `O=C(Nc1cccc(-c2nncn2C2CC2)c1)c1cc(-n2cnc(-c3ccccc3)c2)ccn1` [Example 38, N-(3-(4-cyclopropyl-4H-1,2,4-triazol-3-yl)phenyl)-4-(4-phenyl-1H-imidazol-1-yl)picolinamide], the IC50 was found to be 17 nM. In turn, `O=C(Nc1cccc(-c2nncn2C2CC2)n1)c1cc(-c2cnc3ccccc3c2)ccn1` [Example 112, N-(6-(4-cyclopropyl-4H-1,2,4-triazol-3-yl)pyridin-2-yl)-4-(quinolin-3-yl)picolinamide] had an IC50 of 14 nM. `O=C(Nc1cccc(-c2nncn2C2CC2)n1)c1cc(-n2cnc(C3CC3)c2)ccn1` [Example 170, 4-(4-cyclopropyl-1H-imidazol-1-yl)-N-(6-(4-cyclopropyl-4H-1,2,4-triazol-3-yl)pyridin-2-yl)picolinamide] gave an IC50 of 7 nM. In turn, `CN1CCN(c2ccnc(C(=O)Nc3cccc(-c4nncn4C)c3)c2)CC1` [Example 29, N-(3-(4-methyl-4H-1,2,4-triazol-3-yl)phenyl)-4-(4-methylpiperazin-1-yl)picolinamide] gave an IC50 of 443 nM. To `Cc1nc(C2CC2)cn1-c1ccnc(C(=O)Nc2cccc(-c3nncn3C3CC3)c2)c1` [Example 182, 4-(4-cyclopropyl-2-methyl-1H-imidazol-1-yl)-N-(3-(4-cyclopropyl-4H-1,2,4-triazol-3-yl)phenyl)picolinamide] belongs 15 nM; to `O=C(Nc1cccc(-c2cncn2C2CC2)c1)c1cc(-c2ccc(C3CC3)nc2)ccn1` [Example 107, 6-cyclopropyl-N-(3-(1-cyclopropyl-1H-imidazol-5-yl)phenyl)-3,4′-bipyridine-2′-carboxamide], 31 nM; to `COc1ncccc1-c1ccnc(C(=O)Nc2cccc(-c3nncn3C3CC3)c2)c1` [Example 67, N-(3-(4-cyclopropyl-4H-1,2,4-triazol-3-yl)phenyl)-2-methoxy-3,4′-bipyridine-2′-carboxamide], 60 nM. `O=C(Nc1cccc(-c2nncn2C2CC2)n1)c1cc(-c2ccc(C3CC3)nc2)ccc1F` [Example 224, N-(6-(4-cyclopropyl-4H-1,2,4-triazol-3-yl)pyridin-2-yl)-5-(6-cyclopropylpyridin-3-yl)-2-fluorobenzamide] displayed an IC50 of 13 nM.

`O=C(Nc1cccc(-c2nncn2C2CC2)c1)c1cc(-c2ccc(C3CC3)nc2)ccn1` [Example 50, 6-cyclopropyl-N-(3-(4-cyclopropyl-4H-1,2,4-triazol-3-yl)phenyl)-3,4′-bipyridine-2′-carboxamide] had an IC50 of 8 nM. Molecule `C[C@H](O)Cn1cnnc1-c1cccc(NC(=O)c2cc(-c3cccnc3)ccn2)c1` [Example 35, (S)-N-(3-(4-(2-hydroxypropyl)-4H-1,2,4-triazol-3-yl)phenyl)-3,4′-bipyridine-2′-carboxamide] displayed an IC50 of 87 nM. The value for `COc1ncc(-c2ccnc(C(=O)Nc3cccc(-c4nncn4C4CC4)c3)c2)cn1` [Example 45, N-(3-(4-cyclopropyl-4H-1,2,4-triazol-3-yl)phenyl)-4-(2-methoxypyrimidin-5-yl)picolinamide] was 9 nM; that for `N#Cc1cncc(-c2ccnc(C(=O)Nc3cccc(-c4nncn4C4CC4)c3)c2)c1` [Example 65, 5-cyano-N-(3-(4-cyclopropyl-4H-1,2,4-triazol-3-yl)phenyl)-3,4′-bipyridine-2′-carboxamide] was 30 nM. To `COc1cncc(-c2ccnc(C(=O)Nc3cccc(-c4nncn4C)c3)c2)c1` [Example 11, 5-methoxy-N-(3-(4-methyl-4H-1,2,4-triazol-3-yl)phenyl)-3,4′-bipyridine-2′-carboxamide] belongs 40 nM; to `CC(O)[C@@H](C)n1cnnc1-c1cccc(NC(=O)c2cc(-c3ccc(C4CC4)nc3)ccn2)n1` (stereo partly drawn) [Example 248, 6-cyclopropyl-N-(6-(4-((2R)-3-hydroxybutan-2-yl)-4H-1,2,4-triazol-3-yl)pyridin-2-yl)-3,4′-bipyridine-2′-carboxamide], 7 nM. The value for `CS(=O)(=O)c1ccc(-c2ccnc(C(=O)Nc3cccc(-c4nncn4C4CC4)c3)c2)cc1` [Example 79, N-(3-(4-cyclopropyl-4H-1,2,4-triazol-3-yl)phenyl)-4-(4-(methylsulfonyl)phenyl)picolinamide] was 6 nM; that for `O=C(Nc1cccc(-c2nncn2C2CC2)n1)c1cc(-c2ccc(C3CC3)nc2)c(Cl)cc1F` [Example 265, 4-chloro-N-(6-(4-cyclopropyl-4H-1,2,4-triazol-3-yl)pyridin-2-yl)-5-(6-cyclopropylpyridin-3-yl)-2-fluorobenzamide] was 27 nM. With `O=C(Nc1cccc(-c2nncn2C2CCCC2)c1)c1cc(-c2cccnc2)ccn1` [Example 40, N-(3-(4-cyclopentyl-4H-1,2,4-triazol-3-yl)phenyl)-3,4′-bipyridine-2′-carboxamide], the IC50 was determined as 75 nM.

Molecule `CN1CCc2c(ncn2-c2ccnc(C(=O)Nc3cccc(-c4nncn4C4CC4)c3)c2)C1C(F)(F)F` (centres unmarked) [Example 257, N-(3-(4-cyclopropyl-4H-1,2,4-triazol-3-yl)phenyl)-4-(5-methyl-4-(trifluoromethyl)-4,5,6,7-tetrahydro-1H-imidazo[4,5-c]pyridin-1-yl)picolinamide] had an IC50 of 6 nM. To `Nc1ncc(-c2ccnc(C(=O)Nc3cccc(-c4nncn4C4CC4)c3)c2)cn1` [Example 25, 4-(2-aminopyrimidin-5-yl)-N-(3-(4-cyclopropyl-4H-1,2,4-triazol-3-yl)phenyl)picolinamide] belongs 13 nM; to `O=C(Nc1cccc(-c2nncn2C2CC2)n1)c1cccc(-c2cnc3cccnc3c2)c1` [Example 191, N-(6-(4-cyclopropyl-4H-1,2,4-triazol-3-yl)pyridin-2-yl)-3-(1,5-naphthyridin-3-yl)benzamide], 18 nM. Consider `COc1ccc(-c2ccnc(C(=O)Nc3cccc(-c4nncn4C4CC4)c3)c2)cn1` [Example 21, N-(3-(4-cyclopropyl-4H-1,2,4-triazol-3-yl)phenyl)-6-methoxy-3,4′-bipyridine-2′-carboxamide], for which the IC50 is 12 nM. To `C[C@@H](C(=O)OC(C)(C)C)n1cnnc1-c1cccc(NC(=O)c2cc(-c3ccc(C4CC4)nc3)ccn2)c1` [Example 222, (S)-tert-butyl 2-(3-(3-(6-cyclopropyl-3,4′-bipyridine-2′-carboxamido)phenyl)-4H-1,2,4-triazol-4-yl)propanoate] belongs 79 nM.

`O=C(Nc1cccc(-c2nncn2C2CC2)c1)c1cc(-c2nnc(C3CC3)s2)ccn1` [Example 270, 4-(5-cyclopropyl-1,3,4-thiadiazol-2-yl)-N-(3-(4-cyclopropyl-4H-1,2,4-triazol-3-yl)phenyl)picolinamide] came in with an IC50 of 107 nM. To `O=C(Nc1ccc(F)c(-c2nncn2C2CC2)c1)c1cc(-c2ccc(C3CC3)nc2)ccn1` [Example 147, 6-cyclopropyl-N-(3-(4-cyclopropyl-4H-1,2,4-triazol-3-yl)-4-fluorophenyl)-3,4′-bipyridine-2′-carboxamide] belongs 400 nM; to `O=C(Nc1cccc(-c2nncn2C2CC2)n1)c1cccc(-c2cnc3ccccc3c2)c1` [Example 150, N-(6-(4-cyclopropyl-4H-1,2,4-triazol-3-yl)pyridin-2-yl)-3-(quinolin-3-yl)benzamide], 17 nM; to `O=C(Nc1cccc(-c2nncn2C2CC2)c1)c1cc(N2CCCC(O)C2)ccn1` (centres unmarked) [Example 174, N-(3-(4-cyclopropyl-4H-1,2,4-triazol-3-yl)phenyl)-4-(3-hydroxypiperidin-1-yl)picolinamide], 93 nM. In the case of `O=C(Nc1cccc(-c2nncn2C2CC2)c1F)c1cc(-c2cccnc2)ccn1` [Example 157, N-(3-(4-cyclopropyl-4H-1,2,4-triazol-3-yl)-2-fluorophenyl)-3,4′-bipyridine-2′-carboxamide], the IC50 was determined as 38 nM.

In the case of `Cc1ccncc1-c1ccnc(C(=O)Nc2cccc(-c3nncn3C3CC3)c2)c1` [Example 57, N-(3-(4-cyclopropyl-4H-1,2,4-triazol-3-yl)phenyl)-4-methyl-3,4′-bipyridine-2′-carboxamide], the IC50 came out at 244 nM. `O=C(Nc1cccc(-c2nncn2C2CC2)n1)c1cc(-n2cnc(-c3ccccc3)c2)ccn1` [Example 113, N-(6-(4-cyclopropyl-4H-1,2,4-triazol-3-yl)pyridin-2-yl)-4-(4-phenyl-1H-imidazol-1-yl)picolinamide] showed an IC50 of 10 nM. In turn, `CC(C)n1ccc2ncc(-c3ccnc(C(=O)Nc4cccc(-c5nncn5C5CC5)c4)c3)cc21` [Example 243, N-(3-(4-cyclopropyl-4H-1,2,4-triazol-3-yl)phenyl)-4-(1-isopropyl-1H-pyrrolo[3,2-b]pyridin-6-yl)picolinamide] displayed an IC50 of 15 nM. The molecule `COc1cncc(-c2ccnc(C(=O)Nc3cccc(-c4nncn4C4CC4)c3)c2)c1` [Example 71, N-(3-(4-cyclopropyl-4H-1,2,4-triazol-3-yl)phenyl)-5-methoxy-3,4′-bipyridine-2′-carboxamide] showed an IC50 of 17 nM. As to `Cn1cncc1-c1ccnc(C(=O)Nc2cccc(-c3nncn3C)c2)c1` [Example 18, 4-(1-methyl-1H-imidazol-5-yl)-N-(3-(4-methyl-4H-1,2,4-triazol-3-yl)phenyl)picolinamide], inhibition was half-maximal at 39 nM (IC50). As to `CCc1ccc(-c2ccnc(C(=O)Nc3cccc(-c4nncn4C4CC4)c3)c2)cn1` [Example 106, N-(3-(4-cyclopropyl-4H-1,2,4-triazol-3-yl)phenyl)-6-ethyl-3,4′-bipyridine-2′-carboxamide], the 50% inhibitory concentration (IC50) stood at 8 nM.

In turn, `CC(CN1CCCC1)n1cnnc1-c1cccc(NC(=O)c2cc(-c3ccc(C4CC4)nc3)ccn2)n1` (centres unmarked) [Example 245, 6-cyclopropyl-N-(6-(4-(1-(pyrrolidin-1-yl)propan-2-yl)-4H-1,2,4-triazol-3-yl)pyridin-2-yl)-3,4′-bipyridine-2′-carboxamide] gave a half-maximal inhibitory concentration (IC50) of 36 nM.

The record behind these values is patent publication USRE48711E1, “Apoptosis signal-regulating kinase inhibitors” (Gilead Sciences, Inc., priority 2009, dated 2021).
